From patent publication US11680196B2, “Use of biodegradable hydrocarbon fluids as heat-transfer media” (TOTAL MARKETING SERVICES, priority 2016, dated 2023)

Experiment: Thermal stability, percentage of decomposition (GB/T 23800-2009, modified)
Assay type: physicochemical
Conditions: after 500 hours at 320° C.
Method: The thermal stability has been evaluated in the present invention by measuring, according to the GB/T 23800-2009 standard, the percentage of decomposition of the fluid. The test performed in the present example differs from the standard by the temperature and the duration of the test. According to the example, the percentage of decomposition of the fluid has been measured after 500 hours at 320° C.
The fluid of Ex. 3 according to the invention and defined above has been compared with other commercial fluids: an alkylbenzene fluid, a dibenzyltoluene isomer, a mineral base oil and a hydrotreated mineral base oil.

Thermal stability (% of decomposition): 6.9%
Substance: dibenzyltoluene isomer
